From patent publication US20130116219A1, “ANTIMICROBIAL CARBOLINE COMPOUNDS” (ALCON RESEARCH, LTD., priority 2011, published 2013)

The compounds below were run on Ad5 (assay: Ad5 genome replication assay (cell-based QPCR) in A549 cells). Conditions: Human adenovirus sp., A549, 72 h, read-out: Ad5 qPCR EC50 (μM).
Procedure: Compounds of the present invention were tested for potency against Ad5 in an Ad5 genome replication assay, a cell-based QPCR assay of Ad5 genome replication in A549 cells, a human lung carcinoma cell line. Serotype of human Ad5, used in this replication assay can also replicate in a NZW rabbit model of adenoviral ocular keratitis.
EC50 values (μM) for inhibition of adenoviral replication were determined by QPCR. Briefly, 10,000 cultured A549 cells were inoculated with 25,000 pfu/well for 3 hrs in 2% FBS F12-K A549 culture media. Following inoculation, A549 cells were treated with log unit dilutions of compound of Formula I (˜10 μM thru˜10 pM) in 10% FBS F12-K culture media with 0.3% DMSO for an additional 3 days. Cell viability was assessed with Alamar Blue (10 μl/well for 2 hrs; fluorescence Ex353; Em595 nm). Plates were washed 3 times with 125 μl PBS, cell lysates were prepared for QPCR analysis using Cells to SNP kit (Life Technologies). Ad5 genome levels per cell were determined with RNaseP and Ad5 hexon Taqman Assays (Life Technologies). EC50, the concentration that inhibited Ad5 genome replication formation by 50%, was estimated from plots of Ad5 genomes/cell vs. compound concentration.

| Structure (SMILES) | EC50 [µM] |
| --- | --- |
| CC(C)CC1c2[nH]c3ccc(Cl)cc3c2CCN1C(=O)CCc1ccccc1 (centres unmarked) [Compound 1] | 0.1 to 1 |
| CC(C)CC1c2[nH]c3ccc(Cl)cc3c2CCN1C(=O)CCN1CCOCC1 (centres unmarked) [Compound 2] | > 1 |
| CC(C)CC1c2[nH]c3ccc(Cl)cc3c2CCN1C(=O)CCN1CCCCC1 (centres unmarked) [Compound 3] | > 1 |
| Cc1ccc(C2c3[nH]c4ccc(Cl)cc4c3CCN2C(=O)CCN2CCC(F)(F)CC2)cc1 (centres unmarked) [Compound 4] | 0.1 to 1 |
| O=C(CCN1CCC(F)(F)CC1)N1CCc2c([nH]c3ccc(Cl)cc23)C1c1ccc(F)cc1 (centres unmarked) [Compound 5] | > 1 |
| CC(C)CC1c2[nH]c3ccc(Cl)cc3c2CCN1C(=O)CN1CCC(F)(F)CC1 (centres unmarked) [Compound 7] | 0.1 to 1 |
| CC(C)CC1c2[nH]c3ccc(Cl)cc3c2CCN1C(=O)CN1CCC(C(F)(F)F)CC1 (centres unmarked) [Compound 8] | 0.1 to 1 |
| O=C(CCN1CCC(F)(F)CC1)N1CCc2c([nH]c3ccc(Cl)cc23)C1CC1CCCC1 (centres unmarked) [Compound 9] | 0.1 to 1 |
| CC(C)(C)CC1c2[nH]c3ccc(Cl)cc3c2CCN1C(=O)CCN1CCC(F)(F)CC1 (centres unmarked) [Compound 10] | 0.1 to 1 |
| CC(C)CC1c2[nH]c3ccc(Cl)cc3c2CCN1C(=O)CCN1CCC(F)(F)C1 (centres unmarked) [Compound 11] | 0.1 to 1 |
| CC(C)CC1c2[nH]c3ccc(Cl)cc3c2CCN1C(=O)CCCN1CCC(F)(F)CC1 (centres unmarked) [Compound 12] | > 1 |
| CC(C)CC1c2[nH]c3ccc(Cl)cc3c2CCN1C(=O)CCN1CCCC(F)(F)C1 (centres unmarked) [Compound 13] | 0.1 to 1 |
| CC(C)CC1c2[nH]c3ccc(Cl)cc3c2CCN1C(=O)OCCN1CCC(F)(F)CC1 (centres unmarked) [Compound 14] | 0.1 to 1 |
| CC(C)CC1c2[nH]c3ccc(Cl)cc3c2CCN1C(=O)CCN1CCC(C)CC1 (centres unmarked) [Compound 15] | > 1 |
| CC(C)CC1c2[nH]c3ccc(Cl)cc3c2CCN1C(=O)CCN1CCC(CF)CC1 (centres unmarked) [Compound 16] | 0.1 to 1 |
| CC(C)CC1c2[nH]c3ccc(Cl)cc3c2CCN1C(=O)OCCN1CCC(C(F)(F)F)C1 (centres unmarked) [Compound 17] | 0.1 to 1 |
| CC(C)CC1c2[nH]c3ccc(Cl)cc3c2CCN1C(=O)OCCN1CCC(F)(F)C1 (centres unmarked) [Compound 18] | 0.1 to 1 |
| CC(C)CC1c2[nH]c3ccc(Cl)cc3c2CCN1C(=O)CCN1CCSCC1 (centres unmarked) [Compound 19] | 0.1 to 1 |
| CC(C)C[C@H]1c2[nH]c3ccc(Cl)cc3c2CCN1C(=O)CCN1CCC(C(F)(F)F)CC1 [Compound 20, (S)-1-(6-chloro-1-isobutyl-3,4-dihydro-1H-pyrido[3,4-b]indol-2(9H)-yl)-3-(4-(trifluoromethyl)piperidin-1-yl)propan-1-one] | 0.1 to 1 |
| CC(C)CC1c2[nH]c3ccc(Cl)cc3c2CCN1C(=O)OCCN1CC(F)C1 (centres unmarked) [Compound 21] | > 1 |
| CC(C)CC1c2[nH]c3ccc(Cl)cc3c2CCN1C(=O)OCCN1CCC(C(F)F)CC1 (centres unmarked) [Compound 22] | > 1 |
| CC(C)CC1c2[nH]c3ccc(Cl)cc3c2CCN1C(=O)OCCN1CCC(F)CC1 (centres unmarked) [Compound 23] | > 1 |
| CC(C)CC1c2[nH]c3ccc(Cl)cc3c2CCN1C(=O)OCCN1CCC(CF)CC1 (centres unmarked) [Compound 24] | > 1 |
| CC(C)CC1c2[nH]c3ccc(Cl)cc3c2CCN1C(=O)C1(C#N)CC1 (centres unmarked) [Compound 25] | > 1 |

| Structure (SMILES) | EC50 [µM] |
| --- | --- |
| CC(C)CC1c2[nH]c3ccc(Cl)cc3c2CCN1C(=O)OCCN1CC(F)(F)C1 (centres unmarked) [Compound 26] | 0.1 to 1 |
| O=C(CCN1CCC(F)CC1)N1CCc2c([nH]c3ccc(Cl)cc23)C1CC1CCCC1 (centres unmarked) [Compound 27] | 0.1 to 1 |
| CC(C)C[C@H]1c2[nH]c3ccc(Cl)cc3c2CCN1C(=O)CCN1CCC(F)CC1 [Compound 28, (S)-1-(6-chloro-1-isobutyl-3,4-dihydro-1H-pyrido[3,4-b]indol-2(9H)-yl)-3-(4-fluoropiperidin-1-yl)propan-1-one] | 0.1 to 1 |
| CC(C)C[C@H]1c2[nH]c3ccc(Cl)cc3c2CCN1C(=O)CCN1CCC(C(F)F)CC1 [Compound 29, (S)-1-(6-chloro-1-isobutyl-3,4-dihydro-1H-pyrido[3,4-b]indol-2(9H)-yl)-3-(4-(difluoromethyl)piperidin-1-yl)propan-1-one] | 0.1 to 1 |
| CC(C)(C)CC1c2[nH]c3ccc(Cl)cc3c2CCN1C(=O)CCN1CCC(F)CC1 (centres unmarked) [Compound 30] | > 1 |
| O=C(CCN1CCC(C(F)F)CC1)N1CCc2c([nH]c3ccc(Cl)cc23)C1CC1CCCC1 (centres unmarked) [Compound 31] | 0.1 to 1 |
| CC(C)(C)CC1c2[nH]c3ccc(Cl)cc3c2CCN1C(=O)CCN1CCC(C(F)F)CC1 (centres unmarked) [Compound 32] | > 1 |
| CC(C)CC1c2[nH]c3ccc(Cl)cc3c2CCN1C(=O)C(C)(C)CN1CCC(F)(F)CC1 (centres unmarked) [Compound 33] | > 1 |
| CC(C)C[C@H]1c2[nH]c3ccc(Cl)cc3c2CCN1C(=O)CCNC1CCC(F)(F)CC1 [Compound 34] | > 1 |
| CC(C)CC1c2[nH]c3ccc(Cl)cc3c2CCN1S(=O)(=O)CCN1CCC(F)(F)CC1 (centres unmarked) [Compound 36] | > 1 |
| CC(C)CC1c2[nH]c3ccc(Cl)cc3c2CCN1C(=O)C(C)CN1CCC(F)(F)CC1 (centres unmarked) [Compound 37] | 0.1 to 1 |
| CC(C)C[C@H]1c2[nH]c3ccc(Cl)cc3c2CCN1C(=O)OCCN1CC[C@H](F)C1 [Compound 38] | 0.1 to 1 |
| CC(C)CC1c2[nH]c3ccc(Cl)cc3c2CCN1C(=O)C1CN(CC(C)C)C1 (centres unmarked) [Compound 39] | > 1 |
| CC(C)CC1c2[nH]c3ccc(Cl)cc3c2CCN1C(=O)CNC1CCCCC1 (centres unmarked) [Compound 40] | > 1 |
| CC(C)CC1c2[nH]c3ccc(Cl)cc3c2CCN1C(=O)CN1CC(F)C1 (centres unmarked) [Compound 41] | 0.1 to 1 |
| CC(C)CC1c2[nH]c3ccc(Cl)cc3c2CCN1C(=O)CC1CCCO1 (centres unmarked) [Compound 42] | 0.1 to 1 |
| CC(C)CC1c2[nH]c3ccc(Cl)cc3c2CCN1C(=O)CCN1CCCCC12CC2 (centres unmarked) [Compound 44] | 0.1 to 1 |
| CC(C)CC1c2[nH]c3ccc(Br)cc3c2CCN1C(=O)CCN1CCC(F)(F)CC1 (centres unmarked) [Compound 45] | < 0.1 |
| CC(C)CC1c2[nH]c3ccc(Cl)cc3c2CCN1C(=O)CCC1CCN(CC(F)F)CC1 (centres unmarked) [Compound 46] | 0.1 to 1 |
| CC(C)CC1c2[nH]c3ccc(Cl)cc3c2CCN1C(=O)CC(O)c1ccccc1 (centres unmarked) [Compound 48] | 0.1 to 1 |
| CC(C)CC1c2[nH]c3ccc(Cl)cc3c2CCN1C(=O)CN1CC[C@H](F)C1 (some centres unmarked) [Compound 49] | > 1 |
| CC(C)CC1c2[nH]c3ccc(Cl)cc3c2CCN1C(=O)C1CCN(CCC(F)(F)F)CC1 (centres unmarked) [Compound 50] | 0.1 to 1 |
| COc1ccc2[nH]c3c(c2c1)CCN(C(=O)CCN1CCC(F)(F)CC1)C3CC(C)C (centres unmarked) [Compound 51] | 0.1 to 1 |
| CC(C)CC1c2[nH]c3ccc(Cl)cc3c2CCN1C(=O)c1ccccn1 (centres unmarked) [Compound 52] | 0.1 to 1 |

| Structure (SMILES) | EC50 [µM] |
| --- | --- |
| CC(C)CC1c2[nH]c3ccc(Cl)cc3c2CCN1C(=O)COC1CCN(CC(F)F)CC1 (centres unmarked) [Compound 53] | > 1 |
| CC(C)C[C@H]1c2[nH]c3ccc(Cl)cc3c2CCN1C(=O)C1CN(CC(F)F)C1 [Compound 54] | 0.1 to 1 |
| CC(C)CC1c2[nH]c3ccc(Cl)cc3c2CCN1C(=O)CN1CCOCC1 (centres unmarked) [Compound 55] | > 1 |
| CC(C)CC1c2[nH]c3ccc(Cl)cc3c2CCN1c1nc(CN2CCC(F)(F)CC2)co1 (centres unmarked) [Compound 56] | 0.1 to 1 |
| CC(C)CC1c2[nH]c3ccc(Cl)cc3c2CCN1c1nc(CN2CCC(F)CC2)co1 (centres unmarked) [Compound 57] | 0.1 to 1 |
| CC(C)CC1c2[nH]c3ccc(Cl)cc3c2CCN1C(=O)CCc1ccco1 (centres unmarked) [Compound 58] | < 0.1 |
| CC(C)CC1c2[nH]c3ccc(Cl)cc3c2CCN1C(=O)Cc1ccccn1 (centres unmarked) [Compound 59] | > 1 |
| CC(C)CC1c2[nH]c3ccc(Cl)cc3c2CCN1C(=O)Cc1cccnc1 (centres unmarked) [Compound 60] | > 1 |
| CC(C)CC1c2[nH]c3ccc(Cl)cc3c2CCN1C(=O)Cc1ccncc1 (centres unmarked) [Compound 61] | > 1 |
| CC(C)CC1c2[nH]c3ccc(Cl)cc3c2CCN1C(=O)c1ccccc1 (centres unmarked) [Compound 62] | 0.1 to 1 |
| CC(C)CC1c2[nH]c3ccc(Cl)cc3c2CCN1C(=O)Cc1ccccc1 (centres unmarked) [Compound 63] | 0.1 to 1 |
| CC(C)CC1c2[nH]c3ccc(Cl)cc3c2CCN1C(=O)c1cccnc1 (centres unmarked) [Compound 64] | 0.1 to 1 |
| CC(C)CC1c2[nH]c3ccc(Cl)cc3c2CCN1C(=O)c1ccncc1 (centres unmarked) [Compound 65] | 0.1 to 1 |
| CC(C)CC1c2[nH]c3ccc(Cl)cc3c2CCN1C(=O)c1ccco1 (centres unmarked) [Compound 66] | > 1 |
| CC(C)CC1c2[nH]c3ccc(Cl)cc3c2CCN1C(=O)C1CCN(c2ncccn2)CC1 (centres unmarked) [Compound 67] | 0.1 to 1 |
| CC(C)CC1c2[nH]c3ccc(Cl)cc3c2CCN1C(=O)COC1CCCCC1 (centres unmarked) [Compound 68] | 0.1 to 1 |
| CC(C)CC1c2[nH]c3ccc(Cl)cc3c2CCN1C(=O)COC1CCN(C2CC2)CC1 (centres unmarked) [Compound 69] | > 1 |
| CC(C)CC1c2[nH]c3ccc(Cl)cc3c2CCN1C(=O)CNc1ccccc1 (centres unmarked) [Compound 70] | < 0.1 |
| CC(C)CC1c2[nH]c3ccc(Cl)cc3c2CCN1C(=O)COc1ccccc1 (centres unmarked) [Compound 71] | 0.1 to 1 |
| CC(C)CC1c2[nH]c3ccc(Cl)cc3c2CCN1C(=O)CCc1ccc(O)cc1 (centres unmarked) [Compound 72] | > 1 |
| CC(C)CC1c2[nH]c3ccc(Cl)cc3c2CCN1C(=O)CN(C)c1ccccc1 (centres unmarked) [Compound 74] | 0.1 to 1 |
| CC(C)CC1c2[nH]c3ccc(Cl)cc3c2CCN1C(=O)CC1CCN(C2CC2)CC1 (centres unmarked) [Compound 75] | 0.1 to 1 |
| CC(C)CC1c2[nH]c3ccc(Cl)cc3c2CCN1C(=O)[C@@H](N)Cc1ccccc1 (some centres unmarked) [Compound 76] | > 1 |
